From patent US20120225062A1 (priority 2011, published 2012) come the findings set out here.

Bounds are passed on as bounds.

This assay deals with KMS11 (human myeloma cell line). Nature of the assay: Cell Proliferation Assay (CellTiter-Glo, 3 days). The settings on record: KMS-11, 72 h, KMS11-luc cells. Type of assay: cell-based. The method, then: KMS11 (human myeloma cell line), were cultured in IMDM supplemented with 10% FBS, sodium pyruvate and antibiotics. Cells were plated in the same medium at a density of 2000 cells per well into 96 well tissue culture plates, with outside wells vacant, on the day of assay.
Test compounds supplied in DMSO were diluted into DMSO at 500 times the desired final concentrations before dilution into culture media to 2 times final concentrations. Equal volumes of 2× compounds were added to the cells in 96 well plates and incubated at 37° C. for 3 days.
After 3 days plates were equilibrated to room temperature and equal volume of CellTiter-Glow Reagent (Promega) was added to the culture wells. The plates were agitated briefly and luminescent signal was measured with luminometer.
Using the procedures of Cell Proliferation Assay, the EC50 concentrations of compounds of the examples were determined in KMS11 cells as shown in Table 4.

What is called EC50 is the concentration needed to bring the measured effect to its halfway point. Read a low EC50 as greater potency. In the case of `C[C@@H]1C[C@H](N)C[C@H](c2ccncc2NC(=O)c2ccc(F)c(-c3c(F)cc([C@H](C)O)cc3F)n2)C1` [Example 73, N-(4-((1R,3S,5S)-3-amino-5-methylcyclohexyl)pyridin-3-yl)-6-(2,6-difluoro-4-((S)-1-hydroxyethyl)phenyl)-5-fluoropicolinamide], the response was half-maximal at 21 nM (EC50). With `C[C@@H]1C[C@H](N)C[C@H](c2ccncc2NC(=O)c2ccc(F)c(-c3c(F)cc([C@@H](C)O)cc3F)n2)C1` [Example 74, N-(4-((1R,3S,5S)-3-amino-5-methylcyclohexyl)pyridin-3-yl)-6-(2,6-difluoro-4-((R)-1-hydroxyethyl)phenyl)-5-fluoropicolinamide], the EC50 stood at 15 nM. The EC50 values of the last two compounds are within 1.5-fold of each other. The figure for `C[C@@H]1C[C@H](N)C[C@H](c2ccncc2NC(=O)c2ccc(F)c(-c3c(F)cc(C4(O)CCOCC4)cc3F)n2)C1` [Example 121, N-(4-((1R,3S,5S)-3-amino-5-methylcyclohexyl)pyridin-3-yl)-6-(2,6-difluoro-4-(4-hydroxytetrahydro-2H-pyran-4-yl)phenyl)-5-fluoropicolinamide] is 27 nM; for `C[C@H]1C[C@@H](c2ccncc2NC(=O)c2ccc(F)c(-c3c(F)cc(C4(O)CCOCC4)cc3F)n2)C[C@@H](N)[C@@H]1O` [Example 122, N-(4-((1R,3R,4R,5S)-3-amino-4-hydroxy-5-methylcyclohexyl)pyridin-3-yl)-6-(2,6-difluoro-4-(4-hydroxytetrahydro-2H-pyran-4-yl)phenyl)-5-fluoropicolinamide] it is 83 nM. The figure for `C[C@H]1C[C@@H](c2ccncc2NC(=O)c2ccc(F)c(-c3c(F)cc(C4(F)CCOCC4)cc3F)n2)C[C@@H](N)[C@@H]1O` [Example 127, N-(4-((1R,3R,4R,5S)-3-amino-4-hydroxy-5-methylcyclohexyl)pyridin-3-yl)-6-(2,6-difluoro-4-(4-fluorotetrahydro-2H-pyran-4-yl)phenyl)-5-fluoropicolinamide] is 59 nM. The figure for `C[C@H]1C[C@@H](c2ccncc2NC(=O)c2ccc(F)c(-c3c(F)cc(C4(F)CCOCC4)cc3F)n2)C[C@@H](N)[C@H]1O` [Example 129, N-(4-((1R,3R,4S,5S)-3-amino-4-hydroxy-5-methylcyclohexyl)pyridin-3-yl)-6-(2,6-difluoro-4-(4-fluorotetrahydro-2H-pyran-4-yl)phenyl)-5-fluoropicolinamide] is 78 nM; for `N[C@H]1CCC[C@@H](c2ccncc2NC(=O)c2ccc(F)c(-c3c(F)cc(OC4CCOCC4)cc3F)n2)C1` [Example 150, N-(4-((1R,3S)-3-aminocyclohexyl)pyridin-3-yl)-6-(2,6-difluoro-4-(tetrahydro-2H-pyran-4-yloxy)phenyl)-5-fluoropicolinamide] it is 324 nM; for `COCCOc1cc(F)c(-c2nc(C(=O)Nc3cnccc3[C@@H]3CCC[C@H](N)C3)ccc2F)c(F)c1` [Example 151, N-(4-((1R,3S)-3-aminocyclohexyl)pyridin-3-yl)-6-(2,6-difluoro-4-(2-methoxyethoxy)phenyl)-5-fluoropicolinamide] it is 340 nM. In the case of `CCOCc1cc(F)c(-c2nc(C(=O)Nc3cnccc3[C@@H]3CCC[C@H](N)C3)ccc2F)c(F)c1` [Example 152, N-(4-((1R,3S)-3-aminocyclohexyl)pyridin-3-yl)-6-(4-(ethoxymethyl)-2,6-difluorophenyl)-5-fluoropicolinamide], the EC50 worked out at 211 nM. The figure for `N[C@H]1CCC[C@@H](c2ccncc2NC(=O)c2ccc(F)c(-c3c(F)cc(C4(F)CCOCC4)cc3F)n2)C1` [Example 153, N-(4-((1R,3S)-3-aminocyclohexyl)pyridin-3-yl)-6-(2,6-difluoro-4-(4-fluorotetrahydro-2H-pyran-4-yl)phenyl)-5-fluoropicolinamide] is 366 nM; for `CC(C)OCc1cc(F)c(-c2nc(C(=O)Nc3cnccc3[C@@H]3CCC[C@H](N)C3)ccc2F)c(F)c1` [Example 155, N-(4-((1R,3S)-3-aminocyclohexyl)pyridin-3-yl)-6-(2,6-difluoro-4-(isopropoxymethyl)phenyl)-5-fluoropicolinamide] it is 264 nM; for `N[C@H]1CCC[C@@H](c2ccncc2NC(=O)c2ccc(F)c(-c3c(F)cc(C4CCOCC4)cc3F)n2)C1` [Example 156, N-(4-((1R,3S)-3-aminocyclohexyl)pyridin-3-yl)-6-(2,6-difluoro-4-(tetrahydro-2H-pyran-4-yl)phenyl)-5-fluoropicolinamide] it is 436 nM. The compound `CCC(=O)c1cc(F)c(-c2nc(C(=O)Nc3cnccc3[C@H]3C[C@@H](N)[C@H](O)[C@@H](C)C3)ccc2F)c(F)c1` [Example 157, N-(4-((1R,3R,4R,5S)-3-amino-4-hydroxy-5-methylcyclohexyl)pyridin-3-yl)-6-(2,6-difluoro-4-propionylphenyl)-5-fluoropicolinamide] had an EC50 of 68 nM. This EC50 lies about 6.4-fold lower than the previous one. As for `C[C@H]1C[C@@H](c2ccncc2NC(=O)c2ccc(F)c(-c3c(F)cc(C4(O)CC4)cc3F)n2)C[C@@H](N)[C@@H]1O` [Example 158, N-(4-((1R,3R,4R,5S)-3-amino-4-hydroxy-5-methylcyclohexyl)pyridin-3-yl)-6-(2,6-difluoro-4-(1-hydroxycyclopropyl)phenyl)-5-fluoropicolinamide], the EC50 worked out at 64 nM. This EC50 and that of the compound before are within 1.5-fold of each other.

Consider `N[C@H]1CCC[C@@H](c2ccncc2NC(=O)c2ccc(F)c(-c3c(F)cc(C4(O)CCC4)cc3F)n2)C1` [Example 159, N-(4-((1R,3S)-3-aminocyclohexyl)pyridin-3-yl)-6-(2,6-difluoro-4-(1-hydroxycyclobutyl)phenyl)-5-fluoropicolinamide], for which a half-maximal response (EC50) required 97 nM. Against the preceding compound, the EC50 is about 1.5-fold higher.

As to `C[C@H]1C[C@@H](c2ccncc2NC(=O)c2ccc(F)c(-c3c(F)cc(C4(O)CCCC4)cc3F)n2)C[C@@H](N)[C@@H]1O` [Example 161, N-(4-((1R,3R,4R,5S)-3-amino-4-hydroxy-5-methylcyclohexyl)pyridin-3-yl)-6-(2,6-difluoro-4-(1-hydroxycyclopentyl)phenyl)-5-fluoropicolinamide], the EC50 was determined as 34 nM.

`N[C@H]1CCC[C@@H](c2ccncc2NC(=O)c2ccc(F)c(-c3c(F)cc(C4(O)CCCC4)cc3F)n2)C1` [Example 162, N-(4-((1R,3S)-3-aminocyclohexyl)pyridin-3-yl)-6-(2,6-difluoro-4-(1-hydroxycyclopentyl)phenyl)-5-fluoropicolinamide] had an EC50 of 122 nM. The figure for `N[C@H]1CCC[C@@H](c2ccncc2NC(=O)c2ccc(F)c(-c3c(F)cc(N4CCOCC4)cc3F)n2)C1` [Example 166, N-(4-((1R,3S)-3-aminocyclohexyl)pyridin-3-yl)-6-(2,6-difluoro-4-morpholinophenyl)-5-fluoropicolinamide] is 325 nM. The figure for `CC(C)(C#N)c1cc(F)c(-c2nc(C(=O)Nc3cnccc3[C@@H]3CCC[C@H](N)C3)ccc2F)c(F)c1` [Example 167, N-(4-((1R,3S)-3-aminocyclohexyl)pyridin-3-yl)-6-(4-(2-cyanopropan-2-yl)-2,6-difluorophenyl)-5-fluoropicolinamide] is 409 nM. `C[C@H]1C[C@@H](c2ccncc2NC(=O)c2ccc(F)c(-c3c(F)cc(C4(C#N)CCOCC4)cc3F)n2)C[C@@H](N)[C@@H]1O` [Example 171, N-(4-((1R,3R,4R,5S)-3-amino-4-hydroxy-5-methylcyclohexyl)pyridin-3-yl)-6-(4-(4-cyanotetrahydro-2H-pyran-4-yl)-2,6-difluorophenyl)-5-fluoropicolinamide]: the EC50 is 77 nM. In the case of `C[C@H]1C[C@@H](c2ccncc2NC(=O)c2ccc(F)c(-c3c(F)cc(C(C)(C)C(=O)O)cc3F)n2)C[C@@H](N)[C@@H]1O` [Example 182, 2-(4-(6-(4-((1R,3R,4R,5S)-3-amino-4-hydroxy-5-methylcyclohexyl)pyridin-3-ylcarbamoyl)-3-fluoropyridin-2-yl)-3,5-difluorophenyl)-2-methylpropanoic acid] it was > 10000 nM; in that of `CC(C)c1cc(F)c(-c2nc(C(=O)Nc3cnccc3[C@H]3C[C@@H](N)[C@H](O)[C@@H](C)C3)ccc2F)c(F)c1` [Example 199, N-(4-((1R,3R,4R,5S)-3-amino-4-hydroxy-5-methylcyclohexyl)pyridin-3-yl)-6-(2,6-difluoro-4-isopropylphenyl)-5-fluoropicolinamide], 204 nM; in that of `C[C@@H]1C[C@H](N)C[C@H](c2ccncc2NC(=O)c2ccc(F)c(-c3c(F)cc(Cl)cc3F)n2)C1` [Example 208, N-(4-((1R,3S,5S)-3-amino-5-methylcyclohexyl)pyridin-3-yl)-6-(4-chloro-2,6-difluorophenyl)-5-fluoropicolinamide], 363 nM. The figure for `C[C@@H]1C[C@H](N)C[C@H](c2ccncc2NC(=O)c2ccc(F)c(-c3c(F)cc(F)cc3F)n2)C1` [Example 209, N-(4-((1R,3S,5S)-3-amino-5-methylcyclohexyl)pyridin-3-yl)-5-fluoro-6-(2,4,6-trifluorophenyl)picolinamide] is 262 nM.

`C[C@H]1CN(c2ccncc2NC(=O)c2ccc(F)c(-c3c(F)cc(Cl)cc3F)n2)C[C@@H](N)[C@@H]1O` [Example 217, N-(4-((3R,4R,5S)-3-amino-4-hydroxy-5-methylpiperidin-1-yl)pyridin-3-yl)-6-(4-chloro-2,6-difluorophenyl)-5-fluoropicolinamide] came in with an EC50 of 62 nM. In the case of `C[C@H]1CN(c2ccncc2NC(=O)c2ccc(F)c(-c3c(F)cc(F)cc3F)n2)C[C@@H](N)[C@@H]1O` [Example 218, N-(4-((3R,4R,5S)-3-amino-4-hydroxy-5-methylpiperidin-1-yl)pyridin-3-yl)-5-fluoro-6-(2,4,6-trifluorophenyl)picolinamide] it was 23 nM.
